Test results taken from PubChem BioAssay AID248 (DTP/NCI, 2004).
Several values for one entry are separate records, joined by “and”; a condition that tells them apart may be missing. Identical values can stand only once. Toxic doses and inconclusive results are not listed. No stated cut-off is given here; in the data, active means T/C of 150% or more; inactive means T/C below 125%.

Tested on: L1210 leukemia ip in BDF1 mice, survival T/C
Assay: NCI In Vivo Anticancer Drug Screen. Data for tumor model L1210 Leukemia (intraperitoneal) in B6D2F1 (BDF1) mice
Conditions: endpoint: mean survival time, higher = longer survival
Outline: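 In this screen, tumor-bearing mice given compound are compared to those given vehicle, and their survival values are reported as a treated-to-control quotient.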

[1] = dose: 100.0 mg/kg/injection, schedule: Q01DX001 (ip), vehicle: saline
[2] = dose: 200.0 mg/kg/injection, schedule: Q01DX001 (ip), vehicle: saline
[3] = dose: 100.0 mg/kg/injection, schedule: Q01DX009 (ip), vehicle: saline
[4] = dose: 50.0 mg/kg/injection, schedule: Q01DX009 (ip), vehicle: saline with Tween-80
[5] = dose: 100.0 mg/kg/injection, schedule: Q01DX009 (ip), vehicle: saline with Tween-80
[6] = dose: 100.0 mg/kg/injection, schedule: Q01DX009 (ip), vehicle: Klucel (hydroxypropylcellulose) (HPC)
[7] = dose: 200.0 mg/kg/injection, schedule: Q01DX009 (ip), vehicle: Klucel (hydroxypropylcellulose) (HPC)
[8] = dose: 200.0 mg/kg/injection, schedule: Q01DX009 (ip), vehicle: saline with Tween-80
[9] = dose: 100.0 mg/kg/injection, schedule: Q04DX002 (ip), vehicle: Klucel (hydroxypropylcellulose) (HPC)
[10] = dose: 200.0 mg/kg/injection, schedule: Q04DX002 (ip), vehicle: Klucel (hydroxypropylcellulose) (HPC)
[11] = dose: 400.0 mg/kg/injection, schedule: Q04DX002 (ip), vehicle: Klucel (hydroxypropylcellulose) (HPC)
[12] = dose: 50.0 mg/kg/injection, schedule: Q04DX003 (ip), vehicle: saline with Tween-80
[13] = dose: 100.0 mg/kg/injection, schedule: Q04DX003 (ip), vehicle: saline with Tween-80
[14] = dose: 200.0 mg/kg/injection, schedule: Q04DX003 (ip), vehicle: saline with Tween-80
[15] = dose: 400.0 mg/kg/injection, schedule: Q04DX003 (ip), vehicle: saline with Tween-80
[16] = dose: 100.0 mg/kg/injection, schedule: Q04DX003 (ip), vehicle: Klucel (hydroxypropylcellulose) (HPC)
[17] = dose: 200.0 mg/kg/injection, schedule: Q04DX003 (ip), vehicle: Klucel (hydroxypropylcellulose) (HPC)
[18] = dose: 400.0 mg/kg/injection, schedule: Q04DX003 (ip), vehicle: Klucel (hydroxypropylcellulose) (HPC)
[19] = dose: 400.0 mg/kg/injection, schedule: Q01DX009 (ip), vehicle: Klucel (hydroxypropylcellulose) (HPC)

Measured: T/C

C1CCC(N2CC3CCCC2O3)CC1 (stereo not given)
inactive: dose: 50.0 mg/kg/injection, schedule: Q01DX001 (ip), vehicle: saline 101 % of control | [1] 97 % of control | [2] 95 % of control

CCC1CN1P(=O)(N(CC)CC)N1CC1CC (stereo not given)
inactive: dose: 29.0 mg/kg/injection, schedule: Q01DX015 (ip), vehicle: saline 100 % of control | dose: 44.0 mg/kg/injection, schedule: Q01DX015 (ip), vehicle: saline 105 % of control | dose: 66.0 mg/kg/injection, schedule: Q01DX015 (ip), vehicle: saline 109 % of control | dose: 89.0 mg/kg/injection, schedule: Q01DX001 (ip), vehicle: saline 111 % of control | [1] 103 % of control | [3] 107 % of control | dose: 100.0 mg/kg/injection, schedule: Q01DX015 (ip), vehicle: saline 110 % of control | dose: 133.0 mg/kg/injection, schedule: Q01DX001 (ip), vehicle: saline 119 % of control | dose: 150.0 mg/kg/injection, schedule: Q01DX009 (ip), vehicle: saline 107 % of control | [2] 121 % of control

N#CC1C=CCC1 (stereo not given)
inactive: [4] 100 % of control | [5] 100 % of control

CC1=CC(C)(C(Cl)(Cl)Cl)C(C)=C/C1=N/O (stereo not given)
inactive: [6] 99 % of control | [7] 89 % of control

Nc1c2c(nc3ccccc13)CCCC2
inactive: dose: 0.78 mg/kg/injection, schedule: Q04DX003 (ip), vehicle: saline 101 % of control | dose: 1.56 mg/kg/injection, schedule: Q01DX009 (ip), vehicle: saline 98 % of control | dose: 1.56 mg/kg/injection, schedule: Q04DX003 (ip), vehicle: saline 93 % of control | dose: 3.12 mg/kg/injection, schedule: Q01DX009 (ip), vehicle: saline 93 % of control | dose: 3.12 mg/kg/injection, schedule: Q04DX003 (ip), vehicle: saline 104 % of control | dose: 6.25 mg/kg/injection, schedule: Q04DX003 (ip), vehicle: saline 96 % of control | dose: 12.5 mg/kg/injection, schedule: Q04DX003 (ip), vehicle: saline 95 % of control

CCOC1(C)OC2CCCCC2O1 (stereo not given)
inactive: [4] 92 % of control | [5] 92 % of control | [8] 92 % of control

Cc1ccc(C(=O)OCc2ccccc2CN2CCCCC2C)cc1 (stereo not given)
inactive: [9] 94 % of control | [10] 108 % of control | [11] 90 % of control

O=C1NC2C(NC(=O)N2Cl)N1Cl (stereo not given)
inactive: dose: 12.5 mg/kg/injection, schedule: Q01DX009 (ip), vehicle: saline with Tween-80 97 % of control | dose: 25.0 mg/kg/injection, schedule: Q01DX009 (ip), vehicle: saline with Tween-80 100 % of control | dose: 25.0 mg/kg/injection, schedule: Q04DX003 (ip), vehicle: saline with Tween-80 94 % of control | dose: 40.0 mg/kg/injection, schedule: Q01DX Z (ip), vehicle: carboxymethylcellulose (CMC) 92 % of control | [4] 94 % of control | [12] 95 % of control | [5] 94 % of control | [13] 105 % of control

CC1=NN(c2ccccc2)C(=O)C1N=Nc1ccc(S(=O)(=O)Nc2ncccn2)cc1 (stereo not given)
inactive: dose: 100.0 mg/kg/injection, schedule: Q01DX001 (ip), vehicle: carboxymethylcellulose (CMC) 100 % of control | dose: 200.0 mg/kg/injection, schedule: Q01DX001 (ip), vehicle: carboxymethylcellulose (CMC) 94 % of control | dose: 400.0 mg/kg/injection, schedule: Q01DX001 (ip), vehicle: carboxymethylcellulose (CMC) 89 % of control

CNC(=O)Oc1ccc(C=Nc2cccc(Cl)c2)cc1
inactive: [9] 98 % of control | [10] 98 % of control | [11] 98 % of control

CC1=Nc2onc(C)c2N=C(C)C1
inactive: [5] 109 % of control | [13] 100 % of control | [8] 94 % of control | [14] 93 % of control | dose: 400.0 mg/kg/injection, schedule: Q01DX009 (ip), vehicle: saline with Tween-80 96 % of control | [15] 95 % of control

O=[N+]([O-])c1ccc(N=Cc2ccccc2)cc1
inactive: [16] 91 % of control | [17] 96 % of control | [18] 98 % of control

CCOC1OC(CO)C(O)C(O)C1O (stereo not given)
inactive: [1] 102 % of control | [2] 98 % of control | dose: 400.0 mg/kg/injection, schedule: Q01DX001 (ip), vehicle: saline 109 % of control

O=COCC(O)COC=O
inactive: dose: 12.5 mg/kg/injection, schedule: Q01DX009 (ip), vehicle: saline 101 % of control | dose: 25.0 mg/kg/injection, schedule: Q01DX009 (ip), vehicle: saline 104 % of control | dose: 50.0 mg/kg/injection, schedule: Q01DX009 (ip), vehicle: saline 87 % of control | [3] 101 % of control | dose: 100.0 mg/kg/injection, schedule: Q04DX003 (ip), vehicle: saline 95 % of control | dose: 200.0 mg/kg/injection, schedule: Q04DX003 (ip), vehicle: saline 90 % of control | dose: 400.0 mg/kg/injection, schedule: Q04DX003 (ip), vehicle: saline 97 % of control

O=C=Nc1ccc(C(=O)CCl)cc1
inactive: dose: 20.0 mg/kg/injection, schedule: Q01DX009 (ip), vehicle: saline with Tween-80 91 % of control | dose: 40.0 mg/kg/injection, schedule: Q01DX009 (ip), vehicle: saline with Tween-80 91 % of control | dose: 80.0 mg/kg/injection, schedule: Q01DX009 (ip), vehicle: saline with Tween-80 101 % of control | dose: 160.0 mg/kg/injection, schedule: Q01DX009 (ip), vehicle: saline with Tween-80 98 % of control

O=C(Nc1ccccc1C(F)(F)F)OCCN1CCNC1=S
inactive: dose: 100.0 mg/kg/injection, schedule: Q01DX001 (ip), vehicle: Klucel (hydroxypropylcellulose) (HPC) 106 % of control | [6] 96 % of control and 103 % of control | [9] 94 % of control and 96 % of control | [16] 101 % of control | dose: 200.0 mg/kg/injection, schedule: Q01DX001 (ip), vehicle: Klucel (hydroxypropylcellulose) (HPC) 103 % of control | [7] 98 % of control and 100 % of control | [10] 95 % of control and 111 % of control | [17] 106 % of control | dose: 400.0 mg/kg/injection, schedule: Q01DX001 (ip), vehicle: Klucel (hydroxypropylcellulose) (HPC) 104 % of control | [19] 95 % of control and 100 % of control | [11] 94 % of control and 104 % of control | [18] 89 % of control

CN=Cc1ccccc1
inactive: [12] 91 % of control | [13] 94 % of control

O=S(=O)(O)CCCBr
inactive: dose: 100.0 mg/kg/injection, schedule: Q04DX003 (ip), vehicle: acetone 96 % of control | dose: 200.0 mg/kg/injection, schedule: Q04DX003 (ip), vehicle: acetone 95 % of control | dose: 400.0 mg/kg/injection, schedule: Q04DX003 (ip), vehicle: acetone 87 % of control

CC1(c2ccccc2)CCc2ccccc21 (stereo not given)
inactive: [13] 100 % of control | [14] 98 % of control | [15] 98 % of control

Cc1ccc(NC(=O)Oc2ccccc2C(N)=O)cc1NC(=O)Oc1ccccc1C(N)=O
inactive: [6] 93 % of control | [7] 94 % of control | [19] 89 % of control
